Each structure is given as a SMILES string.

The data set can be described thus: gradient 5% acetonitrile 3 min, to 50% in 2 min, to 85% in 15 min, held 3 min, 100 µL/min. Particulars: column: Zorbax Extend-C18 2.1 x 50 mm; eluents: water / acetonitrile, 0.1% formic acid. A digest of the protocol: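 The system's dead and dwell volumes were 40 μL and 900 μL, with a Zorbax Extend-C18 column (2.1 × 50 mm, 1.8 μm) run at 100 μL/min in water and acetonitrile containing 0.1% formic acid each. Pure standards were analyzed in mixtures of ~100 molecules by HPLC–quadrupole time-of-flight mass spectrometry in positive and negative ionization mode. Retention time was assigned from computationally picked, manually inspected adduct peaks.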
Turning to `Cc1noc2ncnc(N3CCN(c4ccccn4)CC3)c12`, the RP-LC retention time came out at 562 s. Turning to `O=C1CCCN1c1ccc(Cn2cccc(S(=O)(=O)N3CCCC3)c2=O)cc1`, the RP-LC retention time amounted to 696 s. Compound `CCn1ccc2c(cc(C(=O)Nc3ccc(F)cc3)n2C)c1=O` registered an RP-LC retention time of 754 s. Consider `CCCc1cc(C2CCCN2C(=O)c2c(OC)cccc2OC)no1` (stereo not given), for which the RP-LC retention time amounted to 898 s. In turn, `Cc1ccc(C)c(CNC(=O)CN2CCN(Cc3ccc(F)cc3)C2=O)c1` came in with an RP-LC retention time of 862 s. Next, `O=S(=O)(c1ccccc1F)N1CC(n2cnnc2-c2ccccc2)C1`: 671 s; `O=C(/C=C/c1ccc(CN(CCO)CCc2c[nH]c3ccccc23)cc1)NO`: 622 s; `CCn1cc(-c2nc(C(=O)Nc3ccc(C)c(F)c3)cs2)c2cccnc21`: 987 s. `O=C(Cc1c(F)cccc1Cl)Nc1nc2c(s1)CN(S(=O)(=O)c1ccccc1)CC2` showed an RP-LC retention time of 950 s. As to `COc1cc(OC)cc(C(=O)Nc2nc(-c3ccc4c(c3)NC(=O)CO4)cs2)c1`, the RP-LC retention time came out at 897 s.

`CCCC(=O)OCCCNc1nc(-c2ccc(Cl)cc2)nc2ccccc12` had an RP-LC retention time of 813 s. Next, `CC1CCCCN1CCNC(=O)CCCn1c(=O)c2cccn2c2ccc(Br)cc21` (stereo not given): 673 s; `O=C(Nc1ccc(C(F)(F)F)cc1)N1CCCC(Cn2c(C3CC3)nc3cccnc32)C1` (stereo not given): 798 s.

`O=c1ccn(-c2cccc(F)c2)nc1-c1nc(-c2ccc(F)c(Br)c2)no1` gave an RP-LC retention time of 1040 s.

The compound `O=C(NCC1CC1)c1cn(C2CN(C(=O)CCc3c[nH]c4ccccc34)C2)nn1` showed an RP-LC retention time of 712 s. Next, `O=C(NCCc1ccccc1)N1CCCC1c1nc(-c2ccccc2)no1` (stereo not given): 922 s; `CCc1ccccc1NC(=O)C1CCCN(c2nc3ccccc3nc2C(F)(F)F)C1` (stereo not given): 1200 s. With `Cc1ccc(C(=O)N2CCC(C)CC2)cc1[N+](=O)[O-]`, the RP-LC retention time amounted to 830 s. The compound `O=C(Cn1nc2c(N3CCSCC3)nccn2c1=O)NCCc1ccc(Cl)cc1` came in with an RP-LC retention time of 850 s. Next, `Clc1ccc(N2CCN(Cc3cc4ccccn4n3)CC2)cc1`: 754 s. As to `COc1cc(Cl)ccc1C(=O)N1CCC(COc2ccc(C(=O)NC(C)C)cc2)CC1`, the RP-LC retention time turned out to be 801 s.

With `COC(=O)c1cc(C)sc1NC(=O)CC1Sc2ccc(C(F)(F)F)cc2NC1=O` (stereo not given), the RP-LC retention time was determined as 1030 s. Next, `O=C(NCc1ccc2c(c1)OCO2)C1CCN(CCc2c[nH]c3ncccc23)CC1`: 577 s; `CN(C)C(=O)c1cn(C2CN(C(=O)Nc3ccccc3F)C2)nn1`: 629 s; `CC(NC(=O)CCc1ccc2[nH]ccc2c1)c1ccccc1` (stereo not given): 812 s. In turn, `CCOc1ccc(-c2c(C#N)c(N)nc(SCC(=O)OCc3ccccc3)c2C#N)cc1` came in with an RP-LC retention time of 997 s.

In the case of `O=C(C1CC1)N1CCCC1c1nc2ccccc2s1` (stereo not given), the RP-LC retention time was 768 s.

`O=C(NCc1csc(C2CCN(C(=O)Cc3ccc(Cl)cc3)CC2)n1)C1CCC1`: the RP-LC retention time was determined as 784 s. Next, `CCOC(=O)c1cnc2nc(C)ccc2c1Nc1cccc(Cl)c1`: 752 s.

In the case of `COc1cc(OC)c(NC(=O)NCC(c2cccnc2)c2c[nH]c3ccccc23)cc1Cl` (stereo not given), the RP-LC retention time was 706 s. Next, `CCCn1cc(S(=O)(=O)Nc2ccccc2)c2cccnc21`: 838 s; `O=C(Nc1cc(Cl)cc(Cl)c1)N1CCc2nc[nH]c2C1`: 642 s; `CCOC(=O)c1c(C)c(CCC(=O)N2CCCCCC2)n(C)c1C`: 897 s. Next, `OC(CN1CCN(c2ccc(F)cc2)CC1)c1ccc2c(c1)OCO2` (stereo not given): 635 s.

In turn, `Cn1cccc1C(=O)C(=O)N1CCN(c2ccc(Cl)cc2)CC1` had an RP-LC retention time of 904 s.

Consider `O=C(COc1cc(O)c2c(=O)c3ccccc3oc2c1)c1ccc(Cl)cc1`, for which the RP-LC retention time came out at 1230 s. Next, `COc1cccc(NS(=O)(=O)c2ccc3c(c2)C(=O)N(C)c2ncccc2O3)c1`: 889 s; `O=c1n(Cc2ccc3c(c2)OCO3)nc2c(S(=O)(=O)N3CCCC3)cccn12`: 783 s; `O=C(NCCN1CCCCCC1)C1CCCN(c2ncc(-c3ccc(F)cc3)cn2)C1` (stereo not given): 715 s. The compound `Cc1oc(C2CCN(S(=O)(=O)c3cccc(F)c3)CC2)nc1C(=O)N1CCCC1` came in with an RP-LC retention time of 913 s. The compound `O=C(CN1C(=O)C(C(=O)N2CCCC2)Sc2ccccc21)Nc1cccc(Cl)c1` (stereo not given) came in with an RP-LC retention time of 1080 s. Next, `Cc1ccc(NC(=O)C2CCN(S(C)(=O)=O)c3cc(C)ccc3O2)c(C)c1` (stereo not given): 945 s; `COc1ccc2cccc(NC(=O)c3c(F)cccc3Cl)c2n1`: 1090 s; `CCOC(=O)COc1ccccc1C1CC(c2ccc(Br)cc2)=NN1C(C)=O` (stereo not given): 1050 s.

The compound `O=C(Nc1ccc(OCC(=O)N2CCN(c3ccccc3Cl)CC2)nc1)C1CC1` gave an RP-LC retention time of 818 s. `CCn1cc(CN2CCC(C(=O)NCc3ccc(OC)cc3OC)CC2)c2cc(OC)ccc21` came in with an RP-LC retention time of 716 s. Turning to `CCn1c(=O)c(C)nc2cc(-c3noc(-c4cc(OC)cc(OC)c4)n3)ccc21`, the RP-LC retention time turned out to be 894 s. Compound `Cc1cccc(-n2c(N)cc(=O)nc2SCC(=O)Nc2nc(-c3ccccc3)cs2)c1` returned an RP-LC retention time of 738 s. Take `COc1cccc(COc2cn(C)c(C(=O)Nc3ccc4c(c3)OCCO4)cc2=O)c1`: the RP-LC retention time was determined as 675 s. Consider `O=C(CSc1ccc(N2CCCC(C(=O)NC3CC3)C2)nn1)Nc1ccccc1Cl` (stereo not given), for which the RP-LC retention time stood at 673 s.

For the compound `Cc1ccc(CN2CCC(c3nc(-c4cnccn4)n[nH]3)CC2)c(C)c1`, the RP-LC retention time was 593 s.

`Cn1c(=O)c2ccn(CC(=O)N3CCC(Cc4ccccc4)CC3)c2n(C)c1=O` yielded an RP-LC retention time of 782 s. Next, `O=C(Nc1ccc(N2CCOCC2)cc1)c1cccs1`: 658 s; `Cc1cccc(NC(=O)Cn2nc3c(Oc4ccc(Cl)cc4)nccn3c2=O)c1`: 930 s. `CC(C)CNc1ccc2nncn2n1` yielded an RP-LC retention time of 644 s. Next, `Cn1nc(-c2nnc(-c3ccccc3)o2)c2c1CCN(S(=O)(=O)c1ccc(F)cc1F)C2`: 955 s.

In turn, `CCOC(=O)C1CCN(C(=O)C2COC3(CCCCC3)N2C(=O)c2ccccc2)CC1` (stereo not given) yielded an RP-LC retention time of 808 s.

For `Cc1ccnc(Nc2nc(-c3ccc(F)c(C)c3)cs2)c1`, the RP-LC retention time turned out to be 906 s. Next, `CCOC(=O)c1nnn(-c2ccccc2OC)c1C(=O)OCC`: 917 s. Next, `CCN(Cc1ccccc1)C(=O)CSc1cc(N2CCN(c3ccc(OC)cc3)CC2)ncn1`: 964 s.

Turning to `CCOc1ccc2cccc(NC(=O)c3cc(C)oc3C)c2n1`, the RP-LC retention time was found to be 1310 s. Next, `Cc1cc2nc(C(F)(F)F)c(=O)n(C(C)C(=O)NCCCN3CCCC3)c2cc1C` (stereo not given): 714 s; `Cc1nn(-c2ccccc2)c(C)c1S(=O)(=O)N1CCN(c2ccccn2)CC1`: 664 s.

`Cc1cc(C)c(NC(=O)Cn2nc3c(Oc4ccccc4C)nccn3c2=O)c(C)c1` had an RP-LC retention time of 894 s.

As for `O=C(Nc1ccccc1F)N1CCC(N2CCN(Cc3ccc(F)cc3)C2=O)CC1`, the RP-LC retention time is 811 s.

The compound `O=C(NCCc1cccs1)c1cccc(N2CCNC(c3ccccc3)C2)n1` (stereo not given) gave an RP-LC retention time of 656 s.

`CCOc1ccccc1NC(=O)N1CCC(CN2CCC(C)CC2)CC1` registered an RP-LC retention time of 582 s. Next, `COc1ccc(NC(=O)C(=O)c2cccn2C)cc1OC`: 784 s; `Cc1ccc(NC(=O)NC2CCN(c3ccc(C)c(C)c3)C2=O)c(C)c1` (stereo not given): 949 s. In turn, `O=c1ccc(N2CCCN(S(=O)(=O)c3ccc(F)cc3F)CC2)nn1-c1ccc(Cl)cc1` showed an RP-LC retention time of 966 s. Next, `O=C(CN1C(=O)c2cccc3cccc(c23)C1=O)NCC1CCCO1` (stereo not given): 651 s; `Cc1ccc(C)c(NC(=O)N2CCCC(C)(C(=O)NCc3ccccc3C)C2)c1` (stereo not given): 1020 s; `Cc1ccc(C)c(-c2cn3ccn(-c4cccc(F)c4)c(=O)c3n2)c1`: 892 s. `Cc1ccc(NC(=O)C2CC(=O)N(c3ccc4oc(C)nc4c3)C2)c(C)c1` (stereo not given) had an RP-LC retention time of 741 s. In turn, `CCCNC(=O)N1CCN(c2nc3ccccc3n(Cc3ccccc3)c2=O)CC1` came in with an RP-LC retention time of 863 s. Turning to `COc1ccc(N2C=C(C(=O)N3CCOCC3)S(=O)(=O)c3ccc(F)cc32)cc1OC`, the RP-LC retention time turned out to be 729 s. Next, `COc1cc2nc(C(=O)N3CCCCC3)cc(Nc3cccc(SC)c3)c2cc1OC`: 723 s; `Cc1nc2ccccc2c(=O)n1Cc1noc(-c2ccc3c(c2)OCO3)n1`: 831 s; `Cc1cc(C(N)=O)c2cc(Cl)ccc2n1`: 592 s.

On to `Cc1cccc(-c2nnc(-c3cc(S(=O)(=O)N(C)C)ccc3F)o2)c1`, for which the RP-LC retention time amounted to 994 s.

(Values after the METLIN SMRT retention time set (Domingo-Almenara et al. 2019).)
